One data set concerns Wistar Hannover female rats. Kind of data set: Toxicological study, oral, rats. The format is in vivo, rat. Particulars: oral 40 mg/kg/day, 6 week-old female rats. How it is done: The compounds of Example 8 or Example 12 were orally given to 6 week-old Wistar Hannover female rats at 40 mg/kg/day.
The compound of Example 29 was orally given to 6 week-old Wistar Hannover female rats at 400 mg/Kg/day once daily for 14 days, respectively.
As to `Cl.N#Cc1ccc(CCN2CCC(O)(COc3ccc(CO)cc3)CC2)cc1` [Example 8, 1-[2-(4-cyanophenyl)ethyl]-4-(4-hydroxymethylphenoxymethyl)piperidin-4-ol hydrochloride], the general appearance result was “no abnormalities”.

The same data set, now with this note: oral 40 mg/kg/day, 6 week-old female rats, examination period.
Turning to `Cl.N#Cc1ccc(CCN2CCC(O)(COc3ccc(CO)cc3)CC2)cc1` [Example 8, 1-[2-(4-cyanophenyl)ethyl]-4-(4-hydroxymethylphenoxymethyl)piperidin-4-ol hydrochloride], the survival entry is listed as “all the rats survived”.

Tested on in another data set: not given
Assay: not given
Conditions: not given
For the compound `Cl.N#Cc1ccc(CCN2CCC(O)(COc3ccc(C(N)=O)cc3)CC2)cc1`, the melting point is 251 to 254.9 °C.

In turn, `N#Cc1ccc(CCN2CCC(O)(COc3ccc([N+](=O)[O-])cc3)CC2)cc1` [Example 6, 1-[2-(4-cyanophenyl)ethyl)-4-(4-nitrophenoxymethyl)piperidin-4-ol] had a melting point of 134.7 to 156.7 °C.

As to `CN(CC1(O)CCN(CCc2ccc(C#N)cc2)CC1)c1ccc([N+](=O)[O-])cc1` [Example 16, 4-[2-(4-hydroxy-4-{[methyl(4-nitrophenyl)amino]methyl}piperidin-1-yl)ethyl]benzonitrile], the melting point lay within 98.3 to 108.1 °C.

As to `N#Cc1ccc(CCN2CCC(O)(COc3ccc(C(N)=O)cc3)CC2)cc1` [Example 5, 4-(4-carbamoylphenoxymethyl)-1-[2-(4-cyanophenyl)ethyl]-piperidin-4-ol], the melting point was 192.1 to 193.2 °C.

`CN(CC1(O)CCN(CCc2ccccc2)CC1)c1ccc(C(=O)O)cc1.Cl` showed a melting point of 242.5 to 245 °C.

`CN(CC1(O)CCN(CCc2ccc(C#N)cc2)CC1)c1ccc(-c2nnn[nH]2)cc1` [Example 17, 4-{2-[4-hydroxy-4-({methyl[4-(1H-tetrazol-5-yl)phenyl]-amino}methyl)piperidin-1-yl]ethyl}benzonitrile] gave a melting point of 159.7 to 171.8 °C.

Take `CN(CC1(O)CCN(CCc2ccc(C#N)cc2)CC1)c1ccc([N+](=O)[O-])cc1.Cl`: the melting point fell in the range of 169.8 to 173.6 °C.

`CN(CC1(O)CCN(CCc2ccc(C#N)cc2)CC1)c1ccccc1C(=O)O.Cl` yielded a melting point of 195.3 to 200.6 °C.

Regarding `CN(CC1(O)CCN(CCc2ccccc2C#N)CC1)c1ccc(C(=O)O)cc1.Cl`, the melting point lay within 197.2 to 222.4 °C.

The compound `CN(CC1(O)CCN(CCc2ccc(C#N)cc2)CC1)c1cccc(C(=O)O)c1` [Example 15, 3-({1-[2-(4-cyanophenyl)ethyl]-4-hydroxypiperidin-4-ylmethyl}methylamino)benzoic acid] showed a melting point of 181.9 to 189.1 °C.

`CN(CC1(O)CCN(CCc2ccc(S(C)(=O)=O)cc2)CC1)c1ccc(C(=O)O)cc1.Cl` registered a melting point of 246.5 to 249.6 °C.

For `Cl.N#Cc1ccc(CCN2CCC(O)(COc3ccc(O)cc3)CC2)cc1`, the melting point lay in the range of 253 to 255.6 °C.

Turning to `CN(CC1(O)CCN(CCc2cccc(C#N)c2)CC1)c1ccc(C(=O)O)cc1.Cl`, the melting point lay in the range of 166.8 to 176.4 °C.

For the compound `COC(=O)c1ccc(OCC2(O)CCN(CCc3ccc(C#N)cc3)CC2)cc1.Cl`, the melting point was 183.7 to 189.7 °C.

As to `Cl.N#Cc1ccc(CCN2CCC(O)(CNc3ccc(C(=O)O)cc3)CC2)cc1`, the melting point is 247.7 to 253.2 °C.

As to `CN(CC1(O)CCN(CCc2ccc(C#N)cc2)CC1)c1ccccc1C(=O)O` [Example 19, 2-({1-[2-(4-cyanophenyl)ethyl]-4-hydroxypiperidin-4-ylmethyl}methylamino)benzoic acid], the melting point fell in the range of 106.5 to 116.2 °C.

`CN(CC1(O)CCN(CCc2ccc(C#N)cc2)CC1)c1cccc(C(=O)O)c1.Cl` had a melting point of 125.5 to 129.7 °C.

The term melting point denotes the temperature of the solid-liquid transition.

The record behind these values is patent publication US6956046B2, “4-hydroxypiperidine derivatives having analgesic activity” (priority 2001, dated 2005).
